Results taken from patent US10669296B2, “LXR agonists and uses thereof” (Rgenix, Inc., priority 2014, dated 2020).
pEC50: −log10 of the molar value.

Test system: ApoE
Assay: ApoE gene expression analysis by qRT-PCR in MeWo cancer cells
Format: cell-based
Settings: 48 h; for Emax at 1 µM / Emax at 10 µM: read-out: ApoE gene expression in relation to GW3965 at 1 μM (100%)
Procedure: Cancer cells (MeWo) were treated in presence of drug or control (DMSO) at indicated concentrations for 48 h. RNA was extracted from whole cell lysates using the Total RNA Purification Kit (17200, Norgen, Thorold, Canada). 600 ng of total RNA was then reverse transcribed into cDNA using the Verso cDNA Synthesis Kit (AB-1453/B, Fisher Scientific). 6 ng of the resulting cDNA was then mixed with SYBR green PCR Master Mix (4309155, Applied Biosystems) and the appropriate primers. Each reaction was performed in quadruplicate, and mRNA expression was quantified by performing real-time PCR amplification using a StepOne Plus Real-Time PCR System (Applied Biosystems). GAPDH was used as an endogenous control for normalization. EC50 values were calculated using Prism6 software and plotting expression values versus drug concentration. The following primers were used: [table] The results are shown in relation to GW3965 ApoE expression at 1 μM (i.e. 100%).

pEC50 (Homo sapiens, MeWo)	pEC50	SMILES	Emax at 1 µM (Homo sapiens, MeWo, 1 μM)	Emax at 10 µM (Homo sapiens, MeWo, 10 μM)	ApoE gene expression in relation to GW3965 at 1 μM (100%) (1 μM)	ApoE gene expression in relation to GW3965 at 1 μM (100%) (10 μM)
> 6.52		O=C1Cc2cc(OCCCN(Cc3cccc(C(F)(F)F)c3Cl)CC(c3ccccc3)c3ccccc3)ccc2CO1 [Compound 6, 6-[3-({[2-chloro-3-(trifluoromethyl)phenyl]methyl}(2,2-diphenylethyl)amino)propoxy]-3,4-dihydro-1H-2-benzopyran-3-one]	> 80%	> 40%		
> 6.00		CS(=O)(=O)c1cccc(OCCCN(Cc2cccc(C(F)(F)F)c2Cl)CC(c2ccccc2)c2ccccc2)c1 [Compound 7, {[2-chloro-3-(trifluoromethyl)phenyl]methyl}(2,2-diphenylethyl)[3-(3-methanesulfonylphenoxy)propyl]amine]	> 80%	> 40%		
> 5.52		CS(=O)(=O)c1cc(OCCCN(Cc2cccc(C(F)(F)F)c2Cl)CC(c2ccccc2)c2ccccc2)cc(F)c1C(=O)O [Compound 35, 4-[3-({[2-chloro-3-(trifluoromethyl)phenyl]methyl}(2,2-diphenylethyl)amino)propoxy]-2-fluoro-6-methanesulfonylbenzoic acid]	< 40%	> 40%		
> 6.52		CC(CCN(Cc1cccc(C(F)(F)F)c1Cl)CC(c1ccccc1)c1ccccc1)Oc1cc(F)c(CO)c(S(C)(=O)=O)c1 (stereo not drawn) [Compound 59, (4-{[4-({[2-chloro-3-(trifluoromethyl)phenyl]methyl}(2,2-diphenylethyl)amino)butan-2-yl]oxy}-2-fluoro-6-methanesulfonylphenyl)methanol]	> 40%	> 40%		
> 6.52		CC(C)(O)c1c(F)cc(OCCCN(Cc2cccc(C(F)(F)F)c2Cl)CC(c2ccccc2)c2ccccc2)cc1S(C)(=O)=O [Compound 60, 2-{4-[3-({[2-chloro-3-(trifluoromethyl)phenyl]methyl}(2,2-diphenylethyl)amino)propoxy]-2-fluoro-6-methanesulfonylphenyl}propan-2-ol]	> 40%	> 80%		
> 6.00		CS(=O)(=O)N1CC(OCCCN(Cc2cccc(C(F)(F)F)c2Cl)CC(c2ccccc2)c2ccccc2)C1 [Compound 62, {[2-chloro-3-(trifluoromethyl)phenyl]methyl} (2,2-diphenylethyl){3-[(1-methanesulfonylazetidin-3-yl)oxy]propyl}amine]	> 80%	> 80%		
	> 5.52	CS(=O)(=O)N1CCC[C@@H](OCCCN(Cc2cccc(C(F)(F)F)c2Cl)CC(c2ccccc2)c2ccccc2)C1 [Compound 63, {[2-chloro-3-(trifluoromethyl)phenyl]methyl}(2,2-diphenylethyl)(3-{[(3R)-1-methanesulfonylpiperidin-3-yl]oxy}propyl)amine]			+++ (“+++” > 80% ApoE induction)	+++ (“+++” > 80% ApoE induction)
> 6.00		COC(=O)c1c(F)cc(OCCCN(Cc2cccc(C(F)(F)F)c2Cl)CC(c2ccccc2)c2ccccc2)cc1S(C)(=O)=O [Compound 64, methyl 4-[3-({[2-chloro-3-(trifluoromethyl)phenyl]methyl}(2,2-diphenylethyl)amino)propoxy]-2-fluoro-6-methanesulfonylbenzoate]	> 80%	> 80%		
> 6.00		CS(=O)(=O)c1cc(OCCCN(Cc2cccc(C(F)(F)F)c2Cl)CC(c2ccccc2)c2ccccc2)cc(F)c1C=O [Compound 65, 4-[3-({[2-chloro-3-(trifluoromethyl)phenyl]methyl}(2,2-diphenylethyl)amino)propoxy]-2-fluoro-6-methanesulfonyl-benzaldehyde]	> 80%	> 80%		
	> 5.52	CS(=O)(=O)N1CCC[C@H](OCCCN(Cc2cccc(C(F)(F)F)c2Cl)CC(c2ccccc2)c2ccccc2)C1 [Compound 66, {[2-chloro-3-(trifluoromethyl)phenyl]methyl}(2,2-diphenylethyl)(3-{[(3S)-1-methanesulfonylpiperidin-3-yl]oxy}propyl)amine]			+++ (“+++” > 80% ApoE induction)	+++ (“+++” > 80% ApoE induction)

The remaining lines, values behind:

SMILES	pEC50 (Homo sapiens, MeWo)	pEC50	Emax at 1 µM (Homo sapiens, MeWo, 1 μM)	Emax at 10 µM (Homo sapiens, MeWo, 10 μM)	ApoE gene expression in relation to GW3965 at 1 μM (100%) (1 μM)	ApoE gene expression in relation to GW3965 at 1 μM (100%) (10 μM)
CS(=O)(=O)NC(=O)Cc1cccc(OCCCN(Cc2cccc(C(F)(F)F)c2Cl)CC(c2ccccc2)c2ccccc2)c1 [Compound 2, 2-{3-[3-({[2-chloro-3-(trifluoromethyl)phenyl]methyl}(2,2-diphenylethyl)amino)propoxy]phenyl}-N-methanesulfonylacetamide]			> 40%	> 40%		
O=C(O)c1cccc(OCCCN(Cc2cccc(C(F)(F)F)c2Cl)CC(c2ccccc2)c2ccccc2)c1 [Compound 3, 3-[3-({[2-chloro-3-(trifluoromethyl)phenyl]methyl}(2,2-diphenylethyl)amino)propoxy]benzoic acid]			> 40%	< 40%		
CC(C)(O)c1cccc(OCCCN(Cc2cccc(C(F)(F)F)c2Cl)CC(c2ccccc2)c2ccccc2)c1 [Compound 4, 2-{3-[3-({[2-chloro-3-(trifluoromethyl)phenyl]methyl}(2,2-diphenylethyl)amino)propoxy]phenyl}propan-2-ol]	> 6.00		> 40%	> 40%		
O=C(O)Cc1cccc(OCCCN(Cc2cccc(OC(F)(F)F)c2)CC(c2ccccc2)c2ccccc2)c1 [Compound 24]			> 40%	> 40%		
O=C(O)Cc1cccc(OCCCN(Cc2cccc(OC(F)(F)C(F)F)c2)CC(c2ccccc2)c2ccccc2)c1 [Compound 25, 2-(3-{3[(2,2-diphenylethyl)({[3-(1,1,2,2-tetrafluoroethoxy)phenyl]methyl})amino]propoxy}phenyl)acetic acid]			> 40%	< 40%		
O=C(O)Cc1cccc(OCCCN(Cc2cccc3c2OC(F)(F)O3)CC(c2ccccc2)c2ccccc2)c1 [Compound 26, 2[3-(3-{[(2,2-difluoro-2H-1,3-benzodioxol-4-yl)methyl](2,2-diphenylethyl)amino}propoxy)phenyl]acetic acid]			< 40%	< 40%		
C[C@H](CCO[C@@H]1CCCN(S(C)(=O)=O)C1)N(Cc1cccc(C(F)(F)F)c1Cl)CC(c1ccccc1)c1ccccc1 [Compound 30, {[2-chloro-3-(trifluoromethyl)phenyl]methyl}(2,2-diphenylethyl)[(2R)-4-{[(3R)-1-methanesulfonylpiperidin-3-yl]oxy}butan-2-yl]amine]			> 40%	> 80%		
CS(=O)(=O)N1CC[C@H](OCCCN(Cc2cccc(C(F)(F)F)c2Cl)CC(c2ccccc2)c2ccccc2)C1 [Compound 61, {[2-chloro-3-(trifluoromethyl)phenyl]methyl}(2,2-diphenylethyl)(3-{[(3S)-1-methanesulfonylpyrrolidin-3-yl]oxy}propyl)amine]			> 40%	> 80%		
C[C@@H](CCOc1cc(F)c(CO)c(S(C)(=O)=O)c1)N(Cc1cccc(C(F)(F)F)c1Cl)CC(c1ccccc1)c1ccccc1 [Compound 71, {4-[(3S)-3-({[2-chloro-3-(trifluoromethyl)phenyl]methyl}(2,2-diphenylethyl)amino)butoxy]-2-fluoro-6-methanesulfonylphenyl}methanol]			< 40%			
